The nature of series [1]: Clearance in rat. Format: ADME, organism-based. The settings on record: in vivo.
Series [2] concerns the target T1, Sterol O-acyltransferase 1 (Homo sapiens, UniProt P35610).
T1 sequence (P35610 whole entry): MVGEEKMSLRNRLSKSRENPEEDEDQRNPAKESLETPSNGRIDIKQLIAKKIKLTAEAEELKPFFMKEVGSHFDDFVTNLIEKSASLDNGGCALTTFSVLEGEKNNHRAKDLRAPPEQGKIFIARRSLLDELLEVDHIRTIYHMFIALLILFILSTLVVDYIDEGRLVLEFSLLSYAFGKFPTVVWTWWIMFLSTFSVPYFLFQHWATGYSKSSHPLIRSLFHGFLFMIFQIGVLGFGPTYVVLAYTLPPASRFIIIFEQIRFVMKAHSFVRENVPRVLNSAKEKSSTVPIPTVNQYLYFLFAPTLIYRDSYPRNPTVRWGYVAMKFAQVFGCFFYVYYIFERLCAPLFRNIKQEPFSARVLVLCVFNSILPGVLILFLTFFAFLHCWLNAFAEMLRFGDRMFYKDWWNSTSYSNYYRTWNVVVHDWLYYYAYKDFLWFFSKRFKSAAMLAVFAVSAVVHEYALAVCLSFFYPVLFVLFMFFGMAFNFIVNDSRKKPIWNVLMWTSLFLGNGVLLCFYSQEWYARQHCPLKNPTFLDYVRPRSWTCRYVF
The series is described as follows: Inhibition of human ACAT1.

The nature of series [3]: Apparent permeability in MDCK cells assessed as permeability from apical to basolateral side. It is filed as ADME, cell-based, Canis lupus familiaris. The settings on record: dog.
Series [4] is described as follows: Lipophilicity, logD of the compound. Format: physicochemical. The settings on record: octanol/water.
The target in series [5] is T2, Diacylglycerol O-acyltransferase 1 (Homo sapiens, UniProt O75907).
T2 sequence (O75907 whole entry): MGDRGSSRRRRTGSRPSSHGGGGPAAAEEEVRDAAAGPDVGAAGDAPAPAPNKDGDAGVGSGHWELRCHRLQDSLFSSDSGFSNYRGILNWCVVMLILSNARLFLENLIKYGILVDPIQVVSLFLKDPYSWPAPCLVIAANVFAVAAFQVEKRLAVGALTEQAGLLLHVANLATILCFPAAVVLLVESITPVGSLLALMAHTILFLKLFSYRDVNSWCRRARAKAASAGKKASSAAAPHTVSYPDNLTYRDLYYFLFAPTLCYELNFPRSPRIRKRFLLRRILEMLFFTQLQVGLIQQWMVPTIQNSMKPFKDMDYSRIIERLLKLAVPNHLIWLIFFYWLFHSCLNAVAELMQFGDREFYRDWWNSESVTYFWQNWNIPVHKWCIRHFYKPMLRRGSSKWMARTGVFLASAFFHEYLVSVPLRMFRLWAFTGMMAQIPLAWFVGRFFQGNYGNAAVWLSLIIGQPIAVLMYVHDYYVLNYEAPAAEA
The series is described as follows: Inhibition of human DGAT1.

The species entered for a further series is Canis familiaris. The series is described as follows: Unbound clearance in dog. It is filed as ADME, organism-based, Canis lupus familiaris. The settings on record: in vivo.
The species named for the next series is Rattus norvegicus. The series is described as follows: Unbound clearance in rat. Format: ADME, organism-based. The settings on record: in vivo.
The next series deals with Hepatocyte. Description: Intrinsic clearance in human hepatocytes. It is filed as ADME, cell-based.
Series [6] in a line: Thermodynamic solubility of the compound after 24 hrs at pH 7.4. To be noted: buffer, read-out: Therm_solubility. Format: physicochemical.
Series [7] is described as follows: Clearance in dog. Format: ADME, organism-based, Canis lupus familiaris. The settings on record: in vivo.
Series [8] is described as follows: Oral bioavailability in rat. Format: ADME, organism-based. The settings on record: in vivo.
The nature of series [9]: Oral bioavailability in dog. Format: ADME, organism-based, Canis lupus familiaris. The settings on record: in vivo.
The subject of a further series is Plasma. Description: Fraction unbound in rat plasma. It is filed as ADME, cell-free.

Values after ≈ are worked out from the molar mass of the structure shown.

Regarding `O=C(Nc1ccc(O[C@H]2CC[C@@H](C(=O)O)CC2)nc1F)c1nnc(Nc2ccc(F)c(F)c2)o1`, the clearance in series [1] was determined as 3.6 mL/min/kg; in [7], 5.1 mL/min/kg. Also, the IC50 in [2] was found to be 4800 nM; in series [5] it was 3 nM. Also, the Papp A→B in [3] worked out at 16 ×10⁻⁶ cm/s. Also, the logD in [4] amounted to 1.9. Also, the CL free was determined as 300 mL/min/kg in the series listed under Canis familiaris and 600 mL/min/kg in the series filed under Rattus norvegicus. For the same molecule, in the series on Hepatocyte, the “Intrinsic clearance (CLint)” value was below 2 µL/min/mg. Also, in series [6], the solubility thermodynamic at 24 h was 15 µM (≈ 7.16 µg/mL).

For `O=C(Nc1ccc(O[C@H]2CC[C@H](C(=O)O)CC2)cc1F)c1nnc(Nc2cc(F)c(F)cc2F)o1`, the IC50 in series [2] turned out to be 6500 nM; in series [5], 15 nM. This molecule also came in with a logD in series [4] of 1.8. Further, in series [6], the solubility thermodynamic at 24 h came to 13 µM (≈ 6.43 µg/mL).

Turning to `O=C(Nc1ccc(O[C@H]2CC[C@@H](C(=O)O)CC2)cc1)c1nnc(Nc2ccc(F)c(F)c2)o1`, the values for the half-inhibitory concentration (IC50) in series [2] and in [5] were 1100 nM and 4 nM, respectively. In addition, in series [6], the solubility thermodynamic at 24 h was 3 µM (≈ 1.38 µg/mL).

As for `O=C(Nc1ccc(O[C@H]2CC[C@@H](C(=O)O)CC2)nc1F)c1nnc(Nc2cc(F)c(F)cc2F)o1`, the bioavailability in series [8] was determined as 100%; in series [9], 61%. Also, the clearance was found to be 1.8 mL/min/kg in series [1] and 4.6 mL/min/kg in [7]. The IC50 came to 1100 nM in series [2] and 4 nM in [5]. The Papp A→B in [3] came out at 15 ×10⁻⁶ cm/s. This molecule also yielded a log distribution coefficient (logD) in [4] of 1.8. Also, the values for the CL free in the series listed under Canis familiaris and in the series filed under Rattus norvegicus were 200 mL/min/kg and 300 mL/min/kg, respectively. Further, the “Intrinsic clearance (CLint)” value with Hepatocyte was below 2 µL/min/mg. Further, the solubility thermodynamic at 24 h in series [6] came out at 2200 µM (≈ 1090 µg/mL).

In the case of `O=C(Nc1cnc(O[C@H]2CC[C@@H](C(=O)O)CC2)cc1F)c1nnc(Nc2cc(F)c(F)cc2F)o1`, the values for the IC50 in series [2] and in [5] were 1300 nM and 6 nM, respectively. The molecule further had a logD in series [4] of 1.6. Besides, the solubility thermodynamic at 24 h in [6] was 240 µM (≈ 119 µg/mL).

Regarding `O=C(Nc1ccc(O[C@H]2CC[C@@H](C(=O)O)CC2)nc1)c1nnc(Nc2ccc(F)c(F)c2)o1`, the bioavailability came to 33% in series [8] and 60% in series [9]. The clearance in series [1] was 7.4 mL/min/kg; in [7], 4.7 mL/min/kg. In addition, the IC50 in series [2] came out at 6500 nM; in [5], 5 nM. Moreover, the Papp A→B in [3] was found to be 2 ×10⁻⁶ cm/s. This molecule returned a logD in series [4] of 1.9. Besides, the CL free is 130 mL/min/kg in the series listed under Canis familiaris and 740 mL/min/kg in the series filed under Rattus norvegicus. The “Intrinsic clearance (CLint)” value in the series on Hepatocyte was below 2 µL/min/mg. For the same molecule, the solubility thermodynamic at 24 h in series [6] was 49 µM (≈ 22.5 µg/mL).

On to `O=C(Nc1ccc(O[C@H]2CC[C@@H](C(=O)O)CC2)cc1)c1nnc(Nc2cc(F)c(F)cc2F)o1`, for which the bioavailability in [8] is 115%; in [9], 23%. The values for the clearance in series [1] and in [7] were 1.1 mL/min/kg and 11 mL/min/kg, respectively. The same molecule yielded a Fu in the series with Plasma of 0.4%. For the same molecule, the Papp A→B in series [3] was 11 ×10⁻⁶ cm/s. This molecule also had a logD in series [4] of 1.9. The values for the CL free in the series listed under Canis familiaris and in the series filed under Rattus norvegicus were 920 mL/min/kg and 470 mL/min/kg, respectively. Also, the “Intrinsic clearance (CLint)” value with Hepatocyte is below 2 µL/min/mg. Besides, the solubility thermodynamic at 24 h in series [6] turned out to be 43 µM (≈ 20.5 µg/mL).

In turn, `O=C(Nc1ccc(O[C@H]2CC[C@@H](C(=O)O)CC2)c(F)c1)c1nnc(Nc2cc(F)c(F)cc2F)o1` registered a logD in series [4] of 2.3. Besides, in series [6], the solubility thermodynamic at 24 h is 11 µM (≈ 5.44 µg/mL).

In the case of `O=C(O)C[C@H]1CC[C@H](c2ccc(NC(=O)c3nnc(Nc4ccc(F)c(F)c4)o3)cc2)CC1`, the solubility thermodynamic at 24 h in series [6] stood at 2 µM (≈ 0.913 µg/mL).

`O=C(O)c1cccc(Oc2ccc(NC(=O)c3nnc(Nc4ccc(F)c(F)c4)o3)cc2)c1` yielded a Fu in the series on Plasma below 0.01%. For the same molecule, the logD in series [4] is 2.3. Besides, the “Intrinsic clearance (CLint)” value with Hepatocyte is below 22 µL/min/mg. In addition, the solubility thermodynamic at 24 h in [6] worked out at 6 µM (≈ 2.71 µg/mL).

`O=C(Nc1ccc(O[C@H]2CC[C@H](C(=O)O)CC2)cc1)c1nnc(Nc2cc(F)c(F)cc2F)o1` showed a logD in series [4] of 1.9. Besides, the solubility thermodynamic at 24 h in series [6] was 27 µM (≈ 12.9 µg/mL).

Take `O=C(Nc1ccc(O[C@H]2CC[C@@H](C(=O)O)CC2)cc1)c1nnc(Nc2ccc(F)cc2)o1`: the figures for the IC50 in series [2] and in [5] were 1800 nM and 5 nM, respectively. The molecule also registered a log distribution coefficient (logD) in series [4] of 1.2. The solubility thermodynamic at 24 h in series [6] is 5 µM (≈ 2.2 µg/mL).

In the case of `N#Cc1ccc(Nc2nnc(C(=O)Nc3ccc(O[C@H]4CC[C@@H](C(=O)O)CC4)cc3)o2)cc1`, the IC50 worked out at 14300 nM in series [2] and 18 nM in series [5]. This molecule yielded a logD in series [4] of 1.4.

Turning to `O=C(O)c1ccc(Oc2ccc(NC(=O)c3nnc(Nc4ccc(F)c(F)c4)o3)cn2)cc1`, the IC50 in series [2] stood at 5600 nM; in series [5] it was 5 nM. The Papp A→B in [3] was 1.1 ×10⁻⁶ cm/s. The logD in series [4] worked out at 1.4. Further, the solubility thermodynamic at 24 h in [6] amounted to 23 µM (≈ 10.4 µg/mL).

For the origin of these results see ChEMBL document CHEMBL3132759, “Design and synthesis of a novel series of cyclohexyloxy-pyridyl derivatives as inhibitors of diacylglycerol acyl transferase 1” (Medchemcomm, 2013).
